We go through six compounds from publication PMC3765866, “Identification of novel PTPRQ phosphatase inhibitors based on the virtual screening with docking simulations” (Theoretical Biology & Medical Modelling, 2013).

Where two headings read alike, the source gives them in different places.

By IC50 is commonly meant the concentration at which inhibition is half-maximal. What is called inhibition is the percentage by which the read-out fell short of the control.

Assay type in all cases: biochemical
Assay [1] concerns the target T1, PTPRQ (Homo sapiens, UniProt Q9UMZ3).
T1 construct: The catalytic domain of PTPRQ (PTPRQ-C, residues 2661–2948) was subcloned into pET28a; His tag; made in house; host or cells: Escherichia coli BL21 (DE3)
T1 sequence (Q9UMZ3 2015-2302 limits assumed): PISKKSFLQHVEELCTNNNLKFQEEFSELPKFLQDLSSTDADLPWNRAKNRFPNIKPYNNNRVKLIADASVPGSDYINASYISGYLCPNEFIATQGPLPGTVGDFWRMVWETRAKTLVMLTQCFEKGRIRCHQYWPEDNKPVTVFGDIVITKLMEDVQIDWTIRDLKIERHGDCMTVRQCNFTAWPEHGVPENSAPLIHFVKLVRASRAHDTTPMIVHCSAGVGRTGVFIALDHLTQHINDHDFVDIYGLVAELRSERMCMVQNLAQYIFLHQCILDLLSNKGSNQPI
In words: PTPRQ enzyme inhibition assay monitoring hydrolysis of pNPP. The note with it: for inhibition at 100 µM: inhibitor 100 μM, duplicates. How it is done: The catalytic domain of PTPRQ (PTPRQ-C, residues 2661–2948) was subcloned into pET28a and overexpressed using Escherichia coli BL21 (DE3) strain. Cells were grown at 291 K after induction with 0.1 mM IPTG for 20 hours. His-tagged PTPRQ-C was purified by nickel-affinity chromatography. 150 compounds selected from the precedent virtual screening were evaluated for their in vitro inhibitory activity against the recombinant human PTPRQ. Initial inhibitor screening was performed by monitoring the extent of hydrolysis of p-Nitrophenyl Phosphate (pNPP) with a […] assay. The purified PTPRQ-C (1.5 μM), pNPP (5 mM), and a candidate inhibitor were incubated in the reaction mixture containing 50 mM Bis-Tris (pH 6.0), 2 mM dithiothreitol for 60 minutes. This enzymatic reaction was stopped with the addition of sodium hydroxide (0.5 M). The phosphatase activities were then checked by the absorbance changes due to the hydrolysis of the substrate at 405 nm. IC50 values of the inhibitors were determined from direct regression curve analysis.

Assay [2] deals with T1, PTPRQ. In words: Inhibition of hydrolysis of PI(3,4,5)P3 by PTPRQ (malachite green). The note with it: 1.5 μM PTPRQ-C, 300 μM PI(3,4,5)P3, 100 μM inhibitor. How it is done: Six PTPRQ inhibitors identified under the above reaction conditions were further investigated using PI(3,4,5)P3 as the substrate (Cayman Chemical). The enzymatic activity of PTPRQ was measured in 80 μL reaction mixture containing 50 mM Tris–HCl (pH 6.0), 10 mM dithiothreitol, 300 μM PI(3,4,5)P3, 100 μM inhibitor, and 1.5 μM of the purified catalytic domain of PTPRQ. The mixture was incubated for 60 minutes at 310 K, and the enzymatic reaction was stopped by the addition of 20 μL of malachite green/ammonium molybdate reagent (Bioassay systems). The absorbance was measured at 650 nm using a plate reader.

In assay [3] the target is T2, PTP receptor type O (PTPRO) (Homo sapiens, UniProt Q16827).
T2 sequence (Q16827 30-1216): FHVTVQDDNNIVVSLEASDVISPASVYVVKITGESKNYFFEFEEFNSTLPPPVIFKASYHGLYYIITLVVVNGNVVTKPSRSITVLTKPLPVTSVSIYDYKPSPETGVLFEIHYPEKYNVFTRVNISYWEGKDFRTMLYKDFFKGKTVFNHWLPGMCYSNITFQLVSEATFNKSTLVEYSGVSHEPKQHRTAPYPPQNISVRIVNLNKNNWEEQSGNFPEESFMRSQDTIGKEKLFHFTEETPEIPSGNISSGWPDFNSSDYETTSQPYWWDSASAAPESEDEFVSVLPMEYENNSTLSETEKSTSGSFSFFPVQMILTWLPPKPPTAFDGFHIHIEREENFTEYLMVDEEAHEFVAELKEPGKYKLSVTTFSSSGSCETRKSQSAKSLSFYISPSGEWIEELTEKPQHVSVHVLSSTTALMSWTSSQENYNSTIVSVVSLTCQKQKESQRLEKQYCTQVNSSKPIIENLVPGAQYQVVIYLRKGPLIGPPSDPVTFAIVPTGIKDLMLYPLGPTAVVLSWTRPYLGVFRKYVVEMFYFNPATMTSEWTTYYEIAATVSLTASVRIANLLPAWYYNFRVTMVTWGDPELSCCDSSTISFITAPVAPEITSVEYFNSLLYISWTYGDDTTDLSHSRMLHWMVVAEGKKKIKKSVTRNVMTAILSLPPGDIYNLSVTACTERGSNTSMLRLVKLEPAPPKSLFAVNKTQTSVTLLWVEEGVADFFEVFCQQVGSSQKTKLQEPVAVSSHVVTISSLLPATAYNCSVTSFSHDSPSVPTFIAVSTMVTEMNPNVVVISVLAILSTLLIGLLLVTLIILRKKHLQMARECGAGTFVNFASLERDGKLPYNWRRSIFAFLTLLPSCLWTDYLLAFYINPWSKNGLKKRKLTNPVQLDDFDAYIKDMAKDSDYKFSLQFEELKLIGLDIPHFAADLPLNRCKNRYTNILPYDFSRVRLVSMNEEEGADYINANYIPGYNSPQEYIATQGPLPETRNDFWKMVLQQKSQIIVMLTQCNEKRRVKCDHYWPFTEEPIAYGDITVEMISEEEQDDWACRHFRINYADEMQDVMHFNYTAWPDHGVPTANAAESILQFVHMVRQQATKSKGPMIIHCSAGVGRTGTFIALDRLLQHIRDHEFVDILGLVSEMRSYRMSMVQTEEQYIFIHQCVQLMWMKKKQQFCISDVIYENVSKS
In words: Selectivity inhibition assay against PTPRO. The note with it: read-out: % inhibition at 100 μM for PTPRO. As for the experimental part: Because the selectivity has been one of the most important issues in the development of phosphatase inhibitors, we compared the inhibitory activities of 1–6 for PTPRQ to those for its homologous protein, PTP receptor type O (PTPRO). These inhibition assays for selectivity were done in duplicates at the inhibitor concentration of 100 μM. […] The simultaneous inhibitions of PTPRQ and PTPRO by 1–6 are actually not surprising because they share a highly conserved catalytic module. To obtain the specific inhibitors for PTPRQ, therefore, it seems that some chemical groups should be added to 1–6 in such a way that the resulting derivatives can be stabilized not only in the active site but also in other peripheral binding pockets.

Setting [4] is: pNPP 5 mM substrate, 1.5 μM PTPRQ-C, pH 6.0, 60 minutes, read-out: IC50 against PTPRQ.

In turn, `CCOC(=O)Cn1cc(/C=C2/C(=O)NC(=O)N(c3cc(C)cc(C)c3)C2=O)c2ccccc21` [Compound 1] gave an IC50 at PTPRQ [1] of 29.9 µM. Moreover, the inhibition at 100 µM against PTPRQ [1] is 71.1 ± 0.8%; in assay [3] it was 94.4 ± 0.5%. The “inhibitory activity against the hydrolysis of PI(3,4,5)P3 by PTPRQ” value (“inhibitory activity” for short) against PTPRQ [2] is recorded as “significant inhibitory activity”.
As to `O=C1NC(=S)S/C1=C\c1cn(-c2ccccc2)nc1-c1ccccc1` [Compound 2], the inhibition at 100 µM stood at 57.7 ± 0.4% at PTPRQ [1] and 94.2 ± 1.5% in assay [3] (inhibitor 100 μM, duplicates). Moreover, the IC50 on PTPRQ [1] (setting [4]) stood at 85.7 µM. For the same compound, at PTPRQ [2], the “inhibitory activity” value was “significant inhibitory activity”.
With `CN1C(=O)/C(=C/c2ccc(OCc3cccc([N+](=O)[O-])c3)cc2)S/C1=N/c1cccc(C(=O)O)c1` [Compound 3], the inhibition at 100 µM stood at 50.9 ± 2.2% on PTPRQ [1] and 48.7 ± 2.1% in assay [3] (inhibitor 100 μM, duplicates). Besides, the IC50 at PTPRQ [1] (setting [4]) amounted to 63.8 µM. At PTPRQ [2], the “inhibitory activity” value is “effect of reducing PTPRQ activity”.
Take `COc1cccc(-c2nn(-c3ccccc3)cc2/C=C2\SC(=S)N(CCC(=O)O)C2=O)c1` [Compound 4]: the inhibition at 100 µM at PTPRQ [1] worked out at 82.6 ± 0.2%; in assay [3] (inhibitor 100 μM, duplicates), 95 ± 3.5%. For the same compound, the IC50 at PTPRQ [1] (setting [4]) came to 44.8 µM.
`O=C(O)CCN1C(=O)/C(=C\c2cccc(Oc3ccccc3)c2)SC1=S` [Compound 5]: the inhibition at 100 µM on PTPRQ [1] is 62.5 ± 1.6%; in assay [3] (inhibitor 100 μM, duplicates), 95 ± 0.8%. On PTPRQ [1] (setting [4]), the IC50 is 65.3 µM.
`COC(=O)c1cccc(-c2ccc(/C=C3\C(=O)N(c4cccc(C(=O)O)c4)N=C3C)o2)c1` [Compound 6]: the inhibition at 100 µM against PTPRQ [1] was 57 ± 2.1%; in assay [3] (inhibitor 100 μM, duplicates), 81.2 ± 0.9%. Also, the half-maximal inhibitory concentration (IC50) at PTPRQ [1] (setting [4]) was 73.1 µM. Also, the “inhibitory activity” value against PTPRQ [2] is reported as “effect of reducing PTPRQ activity”.
